Test results published in patent publication EP4603105A1, “PHARMACEUTICAL COMPOSITION CONTAINING CYCLIC COMPOUND HAVING SELECTIVE KRAS INHIBITORY EFFECT AGAINST HRAS AND NRAS” (CHUGAI SEIYAKU KABUSHIKI KAISHA, priority 2022, dated 2024).
Read-outs that look alike come from different tables or passages of the source.

Key:
[1] = molecular target: GDP-bound KRAS wild-type protein (Homo sapiens, UniProt P01116); test: Binding to KRAS by surface plasmon resonance (SPR), dissociation constant KD
How it was run: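 SPR, 30°C: Avi-biotin RAS·GDP captured via Biotin CAPture (~100–300 RU); running buffer HBS pH 7.4, 1 mM DTT, 10 mM MgCl2, 0.01% Tween 20, 10 µM GDP, 4% DMSO. Single-cycle kinetics, 100 µL/min, 75 s injections; 1:1 model → KD.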

[2] = tested on: human lung cancer strain NCI-H441; test: NCI-H441 cell proliferation inhibitory activity (CellTiter-Glo, 4 days); type: cell-based; conditions: read-out: NCl-H441 IC50
How it was run: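 Signal came from […] measured per well once the reagent was added. Beforehand, cells were cultured at 37°C and 5% carbon dioxide on a compound series serially diluted in dimethyl sulfoxide.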

[3] = molecular target: GDP-bound NRAS wild-type protein (Homo sapiens, UniProt P01111); test: Binding to NRAS by surface plasmon resonance (SPR), KD and KD ratio to KRAS
How it was run: (§1)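 Each cycle, GDP-bound biotin-Avi RAS was captured (~100–300 RU), compound concentrations were injected low to high for 75 s each at 100 µL/min, then the chip was regenerated. Buffer: HBS pH 7.4, 10 mM MgCl2, 10 µM GDP, 1 mM DTT, 4% DMSO; 30°C. KD from a 1:1 binding model.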

[4] = molecular target: HRAS wild-type protein (Homo sapiens, UniProt P01112); test: Binding to HRAS by surface plasmon resonance (SPR), KD and KD ratio to KRAS
How it was run: as §1

[5] = Single Cycle Kinetics, 1:1 binding model
[6] = 50% proliferation inhibitory concentration, four days
[7] = ratio of KD with respect to GDP-bound NRAS wild-type protein to KD with respect to KRAS
[8] = ratio of KD with respect to HRAS wild-type protein to KD with respect to KRAS
[9] = ratio of KD for GDP-bound NRAS wild-type protein to KD for KRAS
[10] = ratio of KD for HRAS wild-type protein to KD for KRAS

Chain of GDP-bound KRAS wild-type protein (P01116 1-188 isoform P01116-2): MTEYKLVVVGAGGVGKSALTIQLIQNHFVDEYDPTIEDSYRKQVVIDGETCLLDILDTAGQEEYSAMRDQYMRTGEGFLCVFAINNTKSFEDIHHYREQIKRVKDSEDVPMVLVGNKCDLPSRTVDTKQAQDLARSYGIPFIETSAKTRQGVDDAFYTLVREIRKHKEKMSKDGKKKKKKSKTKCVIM
Chain of HRAS wild-type protein (P01112 whole entry): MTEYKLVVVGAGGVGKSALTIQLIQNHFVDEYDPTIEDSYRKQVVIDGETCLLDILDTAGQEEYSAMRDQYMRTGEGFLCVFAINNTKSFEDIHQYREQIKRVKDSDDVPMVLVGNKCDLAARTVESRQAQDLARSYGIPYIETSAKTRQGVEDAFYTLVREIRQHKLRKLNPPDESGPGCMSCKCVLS
Chain of GDP-bound NRAS wild-type protein (P01111 whole entry): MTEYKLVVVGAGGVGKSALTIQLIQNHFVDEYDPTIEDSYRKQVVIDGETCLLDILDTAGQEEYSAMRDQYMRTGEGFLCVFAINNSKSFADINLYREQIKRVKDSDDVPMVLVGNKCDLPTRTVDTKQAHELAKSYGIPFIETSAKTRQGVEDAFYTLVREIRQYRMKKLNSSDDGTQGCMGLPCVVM

Structure (SMILES)	Kd [1, 5] [nM]	IC50 [2, 6] [nM]	NRAS /KRAS [3, 7]	HRAS /KRAS [4, 8]	Kd ([1]; Single Cycle Kinetics) [nM]	IC50 ([2]; NCI-H441 cells, 4 days) [nM]	NRAS /KRAS [3, 9]	HRAS /KRAS [4, 10]	Kd ([1]; 1:1 binding model) [nM]
CCO[C@@H]1C[C@H]2C(=O)NC3(CCC3)C(=O)N(C)[C@@H](C3CCCC3)C(=O)N(C)[C@H](C(=O)N(C)C)CC(=O)N(C)[C@@H](CC(C)C)C(=O)N[C@@H]([C@@H](C)CC)C(=O)N(C)CC(=O)N(C)[C@H]3C/C=C\CCN(C3=O)[C@@H](Cc3ccc(C(F)(F)F)cc3)C(=O)N(C)CC(=O)N[C@@H](CCc3ccc(C(F)(F)F)c(OC)c3)C(=O)N2C1 [PP1245]	0.06	3.7	A (a compound having 10 or more and less than 20 is denoted as A)	B (a compound having 3 or more and less than 10 is denoted as B)	–	–	–	–	–
CCC[C@H]1C(=O)N[C@@H](C2CCCC2)C(=O)N(C)CC(=O)N(C)[C@H]2C/C=C\CCN(C2=O)[C@@H](Cc2ccc(C)cc2)C(=O)N(C)CC(=O)N[C@@H](CCc2ccc(C(F)(F)F)c(OC)c2)C(=O)N2CC3(CC3)C[C@H]2C(=O)NC2(CCC2)C(=O)N(C)[C@@H](C(CC)CC)C(=O)N(C)[C@H](C(=O)N(C)C)CC(=O)N1C [PP3430]	–	–	–	–	0.7	29.8	AA (a compound having 20 or more is denoted as AA)	A (a compound having 10 or more and less than 20 is denoted as A)	–
CCCC[C@H]1C(=O)N[C@@H]([C@@H](C)CC)C(=O)N(C)CC(=O)N(C)[C@H]2C/C=C\CCN(C2=O)[C@@H](Cc2ccc(C(F)(F)F)cc2)C(=O)N(C)CC(=O)N[C@@H](CCc2ccc(C(F)(F)F)c(OC)c2)C(=O)N2C[C@H](OCC)C[C@H]2C(=O)OC2(CCC2)C(=O)N(C)[C@@H](C2CCCC2)C(=O)N(C)[C@H](C(=O)N(C)C)CC(=O)N1C [PP3367]	–	–	–	–	0.18	8.5	A (a compound having 10 or more and less than 20 is denoted as A)	A (a compound having 10 or more and less than 20 is denoted as A)	–
CCO[C@@H]1C[C@H]2C(=O)OC3(CCC3)C(=O)N(C)[C@@H](C3CCCC3)C(=O)N(C)[C@H](C(=O)N(C)C)CC(=O)N(C)[C@@H]([C@H](C)OC)C(=O)N[C@@H]([C@@H](C)CC)C(=O)N3CCC[C@H]3C(=O)N(C)[C@H]3C/C=C\CCN(C3=O)[C@@H](Cc3ccc(C)cc3)C(=O)N(C)CC(=O)N[C@@H](CCc3ccc(C(F)(F)F)c(OC)c3)C(=O)N2C1 [PP3395]	–	–	–	–	0.82	11	A (a compound having 10 or more and less than 20 is denoted as A)	B (a compound having 3 or more and less than 10 is denoted as B)	–
CCO[C@@H]1C[C@H]2C(=O)NC3(CC(C)(C)C3)C(=O)N(C)[C@@H](C3CCCC3)C(=O)N(C)[C@H](C(=O)N(C)C)CC(=O)N[C@@H](CC3CC3)C(=O)N[C@@H]([C@@H](C)CC)C(=O)N(C)CC(=O)N(C)[C@H]3C/C=C\CCN(C3=O)[C@@H](Cc3ccc(C(F)(F)F)cc3)C(=O)N(C)CC(=O)N[C@@H](CCc3ccc(C(F)(F)F)c(OC)c3)C(=O)N2C1 [PP3448]	–	–	–	–	0.2	18.4	A (a compound having 10 or more and less than 20 is denoted as A)	A (a compound having 10 or more and less than 20 is denoted as A)	–
CCC[C@H]1C(=O)N[C@@H]([C@@H](C)CC)C(=O)N(C)CC(=O)N(C)[C@H]2C/C=C\CCN(C2=O)[C@@H](Cc2ccc(C(F)(F)F)cc2)C(=O)N(C)CC(=O)N[C@@H](CCc2ccc(C(F)(F)F)c(OC)c2)C(=O)N2CC3(CC3)C[C@H]2C(=O)N(C)C2(CCC2)C(=O)N(C)[C@@H]([C@@H](C)CC)C(=O)N(C)[C@H](C(=O)N(C)C)CC(=O)N1C [PP3291]	–	–	–	–	0.85	3.7	A (a compound having 10 or more and less than 20 is denoted as A)	B (a compound having 3 or more and less than 10 is denoted as B)	–
CCO[C@@H]1C[C@H]2C(=O)NC3(CCC3)C(=O)N(C)[C@@H](C3CCCC3)C(=O)N(C)[C@H](C(=O)N3CCCC3)CC(=O)N(C)[C@@H](CC(C)C)C(=O)N[C@@H]([C@@H](C)CC)C(=O)N(C)CC(=O)N(C)[C@H]3C/C=C\CCN(C3=O)[C@@H](Cc3ccc(C(F)(F)F)cc3)C(=O)N(C)CC(=O)N[C@@H](CCc3cc(F)c(C(F)(F)F)c(F)c3)C(=O)N2C1 [PP1295]	0.12	6.2	AA (a compound having 20 or more is denoted as AA)	A (a compound having 10 or more and less than 20 is denoted as A)	–	–	–	–	–
C=CC[C@H]1C(=O)N[C@@H]([C@@H](C)CC)C(=O)N(C)CC(=O)N(C)[C@H]2C/C=C\CCN(C2=O)[C@@H](CC2CCC(F)(F)CC2)C(=O)N(C)CC(=O)N[C@@H](CCc2cc(F)c(C(F)(F)F)c(F)c2)C(=O)N2C[C@H](OCC)C[C@H]2C(=O)NC2(CCC2)C(=O)N(C)[C@@H](C2CCCC2)C(=O)N(C)[C@H](C(=O)N(C)C)CC(=O)N1C [PP1454]	0.096	15.2	A (a compound having 10 or more and less than 20 is denoted as A)	A (a compound having 10 or more and less than 20 is denoted as A)	–	–	–	–	–
CCC(CC)[C@H]1C(=O)N(C)[C@H](C(=O)N(C)C)CC(=O)N(C)[C@@H](COC)C(=O)N[C@@H]([C@@H](C)CC)C(=O)N(C2CC2)CC(=O)N(C)[C@H]2C/C=C\CCN(C2=O)[C@@H](CC2CCCCC2)C(=O)N(C)CC(=O)N[C@@H](CCc2cc(F)c(C(F)(F)F)c(F)c2)C(=O)N2C[C@H](OC(C)C)C[C@H]2C(=O)NC2(CC(C)(C)C2)C(=O)N1C [PP2515]	–	–	–	–	–	384	A (a compound having 10 or more and less than 20 is denoted as A)	A (a compound having 10 or more and less than 20 is denoted as A)	5.1
CCCOC[C@H]1C(=O)N[C@@H]([C@@H](C)CC)C(=O)N(C)CC(=O)N(C)[C@H]2C/C=C\CCN(C2=O)[C@@H](Cc2ccc(C(F)(F)F)cc2)C(=O)N(C)CC(=O)N[C@@H](CCc2cc(F)c(C(F)(F)F)c(F)c2)C(=O)N2C[C@H](OCC)C[C@H]2C(=O)NC2(CC(C)(C)C2)C(=O)N(C)[C@@H](C2CCCC2)C(=O)N(C)[C@H](C(=O)N(C)C)CC(=O)N1C [PP1398]	0.032	2.3	A (a compound having 10 or more and less than 20 is denoted as A)	A (a compound having 10 or more and less than 20 is denoted as A)	–	–	–	–	–
CCC[C@H]1C(=O)N[C@@H]([C@@H](C)CC)C(=O)N(C2CC2)CC(=O)N(C)[C@H]2C/C=C\CCN(C2=O)[C@@H](Cc2ccc(C)cc2)C(=O)N(C)CC(=O)N[C@@H](CCc2ccc(C(F)(F)F)c(OC)c2)C(=O)N2CC[C@H](OC)[C@H]2C(=O)N(C)C2(CCC2)C(=O)N(C)[C@@H](C2CCCC2)C(=O)N(C)[C@H](C(=O)N(C)C)CC(=O)N1C [PP3245]	–	–	–	–	0.18	6.7	A (a compound having 10 or more and less than 20 is denoted as A)	A (a compound having 10 or more and less than 20 is denoted as A)	–
CCO[C@@H]1C[C@H]2C(=O)NC3(CCC3)C(=O)N(C)[C@@H](C3CCCC3)C(=O)N(C)[C@H](C(=O)N3CCCCC3)CC(=O)N(C)[C@@H](CC3CC3)C(=O)N[C@@H]([C@@H](C)CC)C(=O)N(C)CC(=O)N(C)[C@H]3C/C=C\CCN(C3=O)[C@@H](Cc3ccc(C(F)(F)F)cc3)C(=O)N(C)CC(=O)N[C@@H](CCc3cc(F)c(C(F)(F)F)c(F)c3)C(=O)N2C1 [PP1291]	0.24	16.7	A (a compound having 10 or more and less than 20 is denoted as A)	A (a compound having 10 or more and less than 20 is denoted as A)	–	–	–	–	–
C#CC[C@H]1C(=O)N[C@@H]([C@@H](C)CC)C(=O)N(C2CC2)CC(=O)N(C)[C@H]2C/C=C\CCN(C2=O)[C@@H](Cc2ccc(C(F)(F)F)cc2)C(=O)N(C)CC(=O)N[C@@H](CCc2ccc(C(F)(F)F)c(Cl)c2)C(=O)N2C[C@H](OCC)C[C@H]2C(=O)N(C)C2(CCC2)C(=O)N(C)[C@@H](C2CCCC2)C(=O)N(C)[C@H](C(=O)N(C)C)CC(=O)N1C [PP3246]	–	–	–	–	0.086	3.8	A (a compound having 10 or more and less than 20 is denoted as A)	A (a compound having 10 or more and less than 20 is denoted as A)	–
CCC[C@H]1C(=O)N[C@@H]([C@@H](C)CC)C(=O)N(C)CC(=O)N(C)[C@H]2C/C=C\CCN(C2=O)[C@@H](Cc2ccc(C(F)(F)F)cc2)C(=O)N(C)CC(=O)N[C@@H](CCc2ccc(Cl)c(Cl)c2)C(=O)N2C[C@H](OCC)C[C@H]2C(=O)NC2(CC(C)(C)C2)C(=O)N(C)[C@@H](CC(C)(C)C)C(=O)N(C)[C@H](C(=O)N(C)C)CC(=O)N1C [PP2738]	–	–	–	–	–	8.5	AA (a compound having 20 or more is denoted as AA)	A (a compound having 10 or more and less than 20 is denoted as A)	0.17
CC[C@H](C)[C@@H]1NC(=O)[C@H](CC(C)C)N(C)C(=O)C[C@@H](C(=O)N(C)C)N(C)C(=O)[C@H](C2CCCC2)N(C)C(=O)C2(CC(C)(C)C2)NC(=O)[C@@H]2C[C@H](C)CN2C(=O)[C@H](CCc2ccc(C(F)(F)F)c(OC)c2)NC(=O)CN(C)C(=O)[C@H](Cc2ccc(C)cc2)N2CC/C=C\C[C@@H](C2=O)N(C)C(=O)[C@@H]2CCCN2C1=O [PP2409]	–	–	–	–	–	31.9	A (a compound having 10 or more and less than 20 is denoted as A)	B (a compound having 3 or more and less than 10 is denoted as B)	0.48
